# Results: a melting point compilation (Tetko et al.; mined from patent text by program, amines drawn as free bases though some values may be those of a salt)
row,SMILES,melting point [°C]
1,COc1ccc2c(c1)CCC1C2CCC2(C)C(NC=O)CCC12 (configuration not stated),252 to 253
2,O=C(O)c1c[nH]c(Cl)c1,175 to 178
3,C=CCNC(=S)Nc1cc(=N)n2c(n1)SCC2,225 to 226
4,Cc1c(Cc2cnc[nH]2)cccc1NS(C)(=O)=O,224
5,CNC(=O)CN(CCN(CCN(CC(=O)O)CC(=O)NC)CC(=O)O)CC(=O)O,78 to 82
6,Cc1cc2c(cc1Cl)N(C(=O)Nc1ccncc1)CC2,> 230
7,CCCCCCCCCCCCCCCCCCOC(=O)C(NC(C)=O)C(=O)OC (configuration not stated),75 to 77
8,c1ccc2cc(Cc3ccncc3)ccc2c1,66 to 67
9,CC(C)C[C@H](NC(=O)N1CCCCCC1)C(=O)N[C@](C)(Cc1ccc(OCc2ccccc2)cc1)C(=O)OC(C)(C)C,46 to 49
10,CCOC(=O)c1sc(OCC)nc1-c1cccc(C(F)(F)F)c1,69 to 72
11,O=c1[nH]c2ccccc2cc1CN1CC=C(Cc2ccccc2)CC1,155 to 158
12,CCC(C)(N=NC(C)(CC)NC(=O)Nc1ccccc1)NC(=O)Nc1ccccc1 (configuration not stated),118 to 120
13,CCC1(O)CC(=O)OCc2c1cc1n(c2=O)Cc2c-1nc1ccccc1c2CCC(C)C (configuration not stated),263
14,COC(=O)Nc1nc(OC)cc(OC)n1,81 to 83
15,O=C(Nc1cc(S(=O)(=O)N2CCC(O)C2)sc1Cl)c1cnn2c(C(F)F)cc(-c3ccc(C(F)(F)F)cc3)nc12 (racemic),274
16,NCC1(Cc2ccc(CC(=O)O)cc2)CCC1,> 255
17,CCC(CC)(CO)NC(=S)NC(=O)c1ccccc1,161 to 163
18,OCC#Cc1cccnc1,99 to 100
19,CCC(=O)Nc1nc2ccc(Cl)cc2nc1N,300 to 302

row,SMILES,melting point [°C]
1,O=C(O)CCc1cc(OCCCCc2cc(-c3ccc(C(F)(F)F)cc3)no2)nn1-c1ccccc1,139 to 140
2,O=C(O)CC(=O)Oc1cccc(-c2cn3c(n2)sc2ccccc23)c1,159 to 161
3,Cc1ncnc(N)c1C=O,158 to 160
4,CCOc1cc2c(cc1OCC)C(CC)C(C)=NN=C2c1ccc(OC)c(OC)c1 (configuration not stated),91 to 93
5,CCOC(=O)c1cn2c(n1)C=NC=C1C=CCC=C12,134 to 135
6,Cc1cc(=O)c(O)c(C(C)O)o1 (configuration not stated),127 to 130
7,CC(=O)N1C(C)(C)CC(O)CC1(C)C,102 to 104
8,CCOC(=O)C(C#N)C(=O)c1ccc[nH]1 (configuration not stated),138 to 139
9,O=C(O)C1CSCCC12OCCO2 (configuration not stated),99 to 101
10,CCOC(=O)C(=O)Nc1cc(C#N)c(C#N)cc1[N+](=O)[O-],140 to 141
11,CC(=O)SCC(C)C(=O)NC(CCCNC(=N)N)C(=O)O (configuration not stated),133
12,CCOC(=O)c1c(COC(C)=O)cccc1S(=O)(=O)NC(=O)Nc1nc(OC)cc(OC)n1,162 to 163
13,CCCCCCCCCCCCCCOCc1ccc(C(C)=O)o1,61 to 62
14,CN1C(=O)c2c(Cl)cc(Cl)c(Cl)c2C1=O,166 to 168
15,CCCCCCCCCCCCCCC(=O)CCl,52.5 to 53.5
16,COc1ccc(NC(=O)c2ccc(-c3ccncc3)s2)cc1N1CCN(C)CC1,191 to 194
17,COc1cccc(N2CCN(C[C@H](CC3CCCCC3)NC(=O)C3CCCCC3)CC2)n1,107 to 109
18,C=CCNC(=O)c1ccccc1C(c1ccc(O)cc1)c1ccc(O)cc1,179 to 181

# Second part, the compound after the results:
row,melting point [°C],SMILES
1,188 to 190,CC(C)Oc1ccc(-n2c(C(=O)NCCNC(=O)OC(C)(C)C)cc3cc(Oc4ccc(C(F)(F)F)cn4)ccc32)cc1
2,269 to 270,CCc1cc(=O)c2nc(Cl)ccc2[nH]1
3,156 to 158,N#Cc1ccc(C2(Cc3ccccc3)C(=O)N(CC3CC3)Cc3cncn32)cc1 (configuration not stated)
4,127 to 128,COc1cccc([C@H]2O[C@H](CC(=O)N[C@H](C)C(=O)OC(C)(C)C)C(=O)N(CC(C)(C)C)c3ccc(Cl)cc32)c1OC
5,139 to 140,COc1ccc(C2=NN(CCCCN3C(=O)c4ccccc4C3=O)C(=O)[C@H]3CC=CC[C@@H]23)cc1OC (relative stereo)
6,187 to 188,Cc1nc(N2CCN(Cc3ccc(OC(F)(F)F)cc3)C2=O)sc1C(=O)Nc1ccccc1
7,106 to 107,Cc1c(N)c2c(c3c1C(c1ccc(C(C)C)cc1)CO3)CCCC2 (configuration not stated)
8,62 to 64,CC(=O)OCCc1ccc2c(c1)Cc1ccccc1O2
9,255 to 256,CCc1nc2c(N)nc(C)c(C)c2n1Cc1cc(-c2ccc(F)cc2)no1
10,> 250,CC(C)N1CCC(n2cc(C3=C(c4cn(C)c5ccccc45)C(=O)NC3=O)c3ccccc32)CC1
11,161 to 162,CC(C)n1nc(-c2c(OC3CCC3)nc(N)nc2-c2ccccc2)ccc1=O
12,70 to 71,CCc1c(O)c(C(C)=O)c(C)c2c1OC(C)(C)CC2C (configuration not stated)
13,98 to 100,CCCc1c(CSc2ncccc2OCC(=O)OCC)ccc(C(C)=O)c1O
14,180,COc1ccc(-c2nc(C)c(C(N)=O)s2)cc1
15,173 to 175,Cc1ccc(Cc2cnc(NCCCNc3ccc(Cl)cn3)[nH]c2=O)cn1
16,131 to 134,CC(C)c1ccc(C(=O)O)c(C2=NC(=O)C(C)(C(C)C)N2)n1 (configuration not stated)
17,167 to 168,O=c1n(-c2ccccc2)nc2c3ccccc3nc(Cl)n12
18,109 to 112,Cc1ccc([N+](=O)[O-])c(C)c1C(=O)O

row,melting point [°C],SMILES
1,163 to 166,CC(C)OC(=O)N1CCC(c2ccc3nc(-c4ccc(S(C)(=O)=O)cc4F)sc3c2)CC1
2,127 to 128,COc1ccc(N2CCN(c3c(C)c(C)c4c(c3C)C(N3CCCCCC3)C(C)(C)O4)CC2)cc1 (configuration not stated)
3,221,CCCn1c(=O)c2[nH]c(/C=C/c3cc(OC)c(OCc4ccccc4)c(OC)c3)nc2n(CCC)c1=O
4,84 to 85,CC1(C)CN(CCN2CCN(c3cccc(Cl)c3)C2=O)C1
5,150 to 151,CC(=O)c1c(-c2ccc(F)cc2)nn(CC2CC2)c(=O)c1Nc1cccc2cccnc12
6,107 to 109,CCOC(=O)C(Cc1ccc(C)c(C)c1)(NC(C)=O)C(=O)OCC
7,192 to 194,C=CCc1c(C)nc(C)c(C(=O)Nc2c(CC)cc(C)cc2CC)c1Cl
8,135,CC(CN(C)C)N1c2ccccc2Sc2ccc(C(=O)NCc3cccs3)cc21 (racemic)
9,94 to 95,Cc1c(C)c([N+](=O)[O-])c(C)c2c1OC(C)(C)C2c1ccc(F)cc1 (configuration not stated)
10,140,CNC(=O)c1cc(C(=O)c2ccccc2)ccc1N
11,140,O=C(Nc1ccc(C(F)(F)F)cc1)O[C@H]1COC(c2ccccc2)=N[C@@H]1c1ccccc1 (racemic)
12,254 to 256,CC1NC(=O)NN=C1c1ccc(NCc2cccnc2)cc1 (configuration not stated)
13,124 to 126,CC(=O)c1ccc(OCCCOc2cc(N)c(C)cc2Br)c(CCC(F)(F)F)c1O
14,> 300,COc1cc(OC)c2c(=O)[nH]c(-c3cc(-c4ccc(S(C)=O)cc4)cs3)nc2c1 (configuration not stated)
15,119 to 123,O=[N+]([O-])c1ccc(C(O)c2ccccn2)c(OCC(F)(F)F)c1 (configuration not stated)
16,258 to 260,Cc1cc(Cc2cnc(N)nc2N)cc(C)c1N
17,271,Cc1cc(-c2ccc(Cl)cc2)cn2c(-c3nc(-c4ccc(S(N)(=O)=O)s4)no3)cnc12
